The test system of one data set is Staphylococcus aureus. Briefly: Antimicrobial activity against methicillin-resistant Staphylococcus aureus ATCC 33591 after 22 hrs by CLSI protocol based microbroth dilution assay. The class given is functional, organism-based. A general note: Broth dilution looks for growth in wells or tubes with falling amounts of substance.
Data set [1] concerns MCF7. In words: Cytotoxicity against human MCF7 cells assessed as reduction in cell viability after 24 hrs by alamar blue dye based assay. The note with it: MCF7, 24 h.
The nature of data set [2]: Cytotoxicity against human HTB26 cells assessed as reduction in cell viability after 24 hrs by alamar blue dye based assay. The note with it: HTB26, 24 h. In general terms: Alamar Blue is a resazurin reagent that responds to reducing activity.
Another data set concerns Staphylococcus warneri. In words: Antimicrobial activity against Staphylococcus warneri ATCC 17917 after 22 hrs by CLSI protocol based microbroth dilution assay. The class given is functional, organism-based.
The next data set concerns Candida albicans. Briefly: Antimicrobial activity against Candida albicans ATCC 14035 after 22 hrs by CLSI protocol based microbroth dilution assay. The class given is functional, organism-based.
The next data set concerns Proteus vulgaris. In words: Antimicrobial activity against Proteus vulgaris ATCC 12454 after 22 hrs by CLSI protocol based microbroth dilution assay. Format: functional, organism-based.
In the next data set the test system is Enterococcus faecium. In words: Antimicrobial activity against vancomycin-resistant Enterococcus faecium EF379 after 22 hrs by CLSI protocol based microbroth dilution assay. Format: functional, organism-based.
The test system of another data set is Vero. In words: Cytotoxicity against African green monkey Vero cells assessed as reduction in cell viability up to 32 ug/ml after 24 hrs by alamar blue dye based assay. The note with it: chlorocebus sabaeus.
The nature of data set [3]: Cytotoxicity against human HTB26 cells assessed as reduction in cell viability up to 32 ug/ml after 24 hrs by alamar blue dye based assay. The note with it: htb26, 24 h.
Another data set deals with HCT-116. Briefly: Cytotoxicity against human HCT-116 cells assessed as reduction in cell viability up to 32 ug/ml after 24 hrs by alamar blue dye based assay. The note with it: hct-116, 24 h.
Data set [4] has as its system MCF7. Briefly: Cytotoxicity against human MCF7 cells assessed as reduction in cell viability up to 32 ug/ml after 24 hrs by alamar blue dye based assay. Conditions: mcf7, 24 h.

The source of these data is ChEMBL document CHEMBL4665781, “Metabolomic Comparison and Assessment of Co-cultivation and a Heat-Killed Inducer Strategy in Activation of Cryptic Biosynthetic Pathways” (J Nat Prod, 2020).

SMILES strings stand for the structures. Calls of active or inactive are those of the source. The rule behind the calls is not given here.

By IC50 is commonly meant the concentration that inhibits the measured activity by half. With `CCCCCCCC1=C(C)C(=O)C(=O)c2c1[nH]c1ccccc21`, the result with Staphylococcus aureus, with Staphylococcus warneri, in the data set with Candida albicans, in the data set on Proteus vulgaris and in the data set on Enterococcus faecium was inactive. Also, the half-maximal inhibitory concentration (IC50) was 3.07 µM with MCF7 [1] and 3.67 µM in data set [2].
`COc1cccc(C(=O)NC(N)=O)c1O`: the result in the data set on Staphylococcus aureus, with Staphylococcus warneri, in the data set with Candida albicans, in the data set with Proteus vulgaris and with Enterococcus faecium was inactive. Besides, the Activity entry (in the data set on Vero; in [3]; in the data set with HCT-116; in the data set on MCF7 [4]) was “Non-Toxic” throughout.
